Experimental data reported in patent publication US20130274281A1, “METHODS OF TREATING METASTATIC BREAST CANCER WITH 4-IODO-3-NITROBENZAMIDE AND IRINOTECAN” (BiPar Sciences, Inc., priority 2010, published 2013).

Columns and labels:
advanced solid tumors [1] = format: in vivo, human
Method: Phase 1: 4-iodo-3-nitrobenzamide is administered intravenously twice weekly (days 1 and 4 of each week) for 3 weeks, followed by a one week 4-iodo-3-nitrobenzamide treatment-free period per one 28-day cycle. Cycle one (day 1 through day 28) is defined as the Safety Phase of the study during which DLTs is assessed and the MTD is determined. The remainder of the study is termed the Maintenance Phase. A subject may participate in this study until he/she experiences a drug intolerance or disease progression. […] For non-measurable disease, best medical practices are used to determine disease progression.
In cohort A (starting dose), a single subject receives 4-iodo-3-nitrobenzamide twice weekly at a dose level of 0.5 mg/kg based on weight measured at screening. If this subject experiences a grade 2 toxicity or higher, then 3 additional subjects would be enrolled in this cohort (only 2 additional subjects would be enrolled in this cohort if the initial subject receives at least 80% of the planned cycle 1 doses). If no additional subjects dosed in this cohort experience a DLT, then dose escalation would occur as below. If no DLT occurs in the initial subject, dose escalation would occur as below. The safety review group has the ability to recommend dose escalation (opening of a new cohort), without expansion with additional subjects, for cases of grade 2 toxicity seen in a single subject that are deemed not to be clinically relevant and/or study treatment-related. Dose Escalation Prior to Grade 2 Toxicity (Potential Cohorts B-J): Until a subject experiences a grade 2 toxicity or higher, one subject would be initially enrolled in all subsequent cohorts at planned 100% dose level increases, with possible cohort expansion as described for cohort A. Safety data are reviewed after 6 doses of 4-iodo-3-nitrobenzamide, and a decision to escalate to the next cohort would be made if no subject experiences a grade 2 toxicity or higher. […]

advanced solid tumors [2] = assay: 4-iodo-3-nitrobenzamide in combination with cytotoxic chemotherapeutic agents, safety and best response; format: in vivo, human
Method: 42 subjects (advanced solid tumors) were treated with 4-iodo-3-nitrobenzamide in combination with cytotoxic chemotherapeutics agents (topotecan, temozolomide, gemcitabine, or carboplatin/taxol) at 4-iodo-3-nitrobenzamide doses of 1.1, 2.0, 2.8, 4.0 and 5.6 mg/kg.

Bcr-ab1 = conditions: background statement; read-out: IC50, inhibition of Bcr-ab1 phosphorylation; cited from earlier work
[3] = tested on: cells not expressing Bcr-Ab1; conditions: background statement; cited from earlier work
[4] = tested on: panel of 63 other kinases, including native c-Ab1; conditions: background statement; cited from earlier work

NC(=O)c1ccc(I)c([N+](=O)[O-])c1 [4-iodo-3-nitrobenzamide]
best response measured to date (advanced solid tumors [1]; 24 subjects, monotherapy 0.5-8.0 mg/kg): stable disease present through at least cycle 2 of the study for six subjects
dose limiting toxicities (DLTs) (advanced solid tumors [1]; in vivo): no dose limiting toxicities (DLTs) were observed at any dose level
cycles of treatment completed with continued stable disease (advanced solid tumors [1]; one subject, monotherapy): 9 cycles
tolerability (advanced solid tumors [2]; 42 subjects, advanced solid tumors, with topotecan, temozolomide, gemcitabine or carboplatin/taxol, BA 1.1, 2.0, 2.8, 4.0 and 5.6 mg/kg, preliminary safety data): well tolerated at all dose levels tested
relation of serious adverse events to study drug (advanced solid tumors [2]; 42 subjects, combination with cytotoxic agents, judged by study investigators): deemed not related to study drug
SAEs attributed to drug (advanced solid tumors [2]; either study (monotherapy, 24 subjects; combination with cytotoxic agents, 42 subjects)): no SAEs attributed to 4-iodo-3-nitrobenzamide in either study
additional toxicities when combined with standard cytotoxic chemotherapy (advanced solid tumors [2]; safety data of both studies): would not cause any additional toxicities
potentiation of known toxicities of standard chemotherapeutic agents (advanced solid tumors [2]; safety data of both studies): no evidence that 4-iodo-3-nitrobenzamide would potentiate any known toxicities

NC(=O)c1cccc(-c2cc(Nc3ccc(OC(F)(F)F)cc3)ncn2)c1 [GNF-2]
IC50 (Bcr-ab1): 267 nM
toxicity towards cells not expressing Bcr-Ab1 [3]: complete lack of toxicity
inhibition of a panel of 63 other kinases, including native c-Ab1 [4]: does not inhibit
